# Source: article PMC10539329, “NLRP6 potentiates PI3K/AKT signalling by promoting autophagic degradation of p85α to drive tumorigenesis” (Nature Communications, 2023)
# Peptide text beside a SMILES is read from it.
# T1: recombinant NLRP6 (Homo sapiens, UniProt P59044)
# T1 construct: DNA encoding full-length NLRP6 was codon optimized; His (N); MBP (N); made in house; host or cells: E. coli (DE3)
# T1 sequence (P59044 1-892): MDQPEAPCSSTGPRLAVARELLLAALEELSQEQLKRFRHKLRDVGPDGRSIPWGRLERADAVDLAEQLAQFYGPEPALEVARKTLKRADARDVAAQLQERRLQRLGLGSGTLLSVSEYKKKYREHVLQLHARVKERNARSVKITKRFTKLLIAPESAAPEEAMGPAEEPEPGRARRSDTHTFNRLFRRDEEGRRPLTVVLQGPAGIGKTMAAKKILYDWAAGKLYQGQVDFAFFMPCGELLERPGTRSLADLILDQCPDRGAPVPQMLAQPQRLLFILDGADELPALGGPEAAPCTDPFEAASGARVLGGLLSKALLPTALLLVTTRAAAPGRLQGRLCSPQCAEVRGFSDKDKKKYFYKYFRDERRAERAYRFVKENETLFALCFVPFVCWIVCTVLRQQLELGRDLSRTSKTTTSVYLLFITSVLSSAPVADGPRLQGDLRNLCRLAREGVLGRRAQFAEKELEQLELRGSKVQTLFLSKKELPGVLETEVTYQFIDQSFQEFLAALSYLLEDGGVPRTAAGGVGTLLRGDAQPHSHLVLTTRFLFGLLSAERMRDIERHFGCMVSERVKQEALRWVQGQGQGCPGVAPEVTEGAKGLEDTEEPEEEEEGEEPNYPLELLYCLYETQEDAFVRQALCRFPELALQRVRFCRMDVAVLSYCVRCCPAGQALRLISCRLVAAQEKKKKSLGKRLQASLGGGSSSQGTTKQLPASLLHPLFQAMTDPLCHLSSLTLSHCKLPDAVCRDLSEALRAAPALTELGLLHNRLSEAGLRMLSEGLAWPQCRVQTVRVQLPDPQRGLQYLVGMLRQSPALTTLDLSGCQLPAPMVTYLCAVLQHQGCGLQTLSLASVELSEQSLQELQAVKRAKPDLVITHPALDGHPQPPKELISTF
# Legend:
# p85α in LN229 cells = assay: NLRP6-induced p85α degradation with pathway inhibitors, immunoblot, LN229; type: cell-based, Human; conditions: LN229 cells transfected with Flag-NLRP6, immunoblot
# Procedure: (§1) For coimmunoprecipitation, cell lysate was collected and incubated with the indicated antibody at 4 °C overnight followed by incubation with Protein A/G beads (Pierce, IL, USA) at 4 °C for 2 h. The unbound proteins were washed away with lysis buffer. The precipitated proteins were separated from the beads. To detect protein expression in frozen tissues or cells, total protein was extracted using RIPA lysis buffer (Beyotime, Shanghai, China) supplemented with protease and phosphatase inhibitors (Beyotime, Shanghai, China). The protein concentration was determined using a BCA protein quantification kit (Beyotime, Shanghai, China) or BCA Protein Assay Kit (BEB, Nanjing, China). The proteins were separated by SDS–PAGE, transferred to polyvinylidene fluoride (PVDF) membranes (Bio–Rad, CA, USA), and incubated with the indicated antibodies. The bands were detected with the ECL Advanced Western blot Detection Kit (Thermo Fisher Scientific, MA, USA) or Super ECL Chemiluminescent Substrate Kit (BEB, Nanjing, China) on a ChemiDoc Touch System (Bio–Rad, CA, USA) or Tanon 4600 (Tanon, Shanghai, China). The band intensities were quantified using Image Lab software (Bio–Rad, CA, USA) or ImageJ software (National Institutes of Health, MD, USA).
# PI3K/AKT pathway [1] = assay: PI3K/AKT activation by NLRP6 overexpression with MK-2206; type: cell-based
# Procedure: as §1
# AKT = conditions: cited from earlier work
# Procedure: To investigate whether NLRs could regulate PI3K/AKT pathway, the FOXO luciferase reporter assay was performed to detect the transcriptional activity of FOXO, which is one of the best characterized targets of PI3K/AKT pathway. Two independent oligonucleotides targeting each of 22 human NLRs were mixed and transfected into LN229 cells. The nontargeting oligonucleotides served as a negative control. The knockdown efficiency targeting each NLR was confirmed by qRT-PCR (Supplementary Fig. 1a). […] Thus, interrupting the interaction between NLRP6 and p85α appears to be an attractive strategy to inhibit tumour growth. α-Helices are the fundamental recognition elements in protein-protein interactions and may serve as ideal inhibitors of macromolecular interactions. According to the observations that the SR domain (amino acids 1–301) on p85α interacted with the NOD domain (amino acids 1 ...
# recombinant NLRP6 = target: T1, recombinant NLRP6; assay: Biolayer interferometry (BLI) binding of peptides to recombinant NLRP6; conditions: Octet Red 96, biotin-NLRP6 on streptavidin biosensors, 30 °C, PBS with 0.01% Tween-20, global 1:1 fitting, printed in picture Fig. 6b, representative of three independent experiments
# Procedure: DNA encoding full-length NLRP6 was codon optimized and chemically synthesized by Genewiz (Soochow, China). The DNA sequence was subcloned into NdeI-XhoI sites of a pDB-His-MBP vector (kindly given by Pro. Chenggui Han, China Agricultural University, Beijing, China). Recombinant NLRP6 protein was expressed and purified following previous reports, with slight modifications. Briefly, the protein was expressed in E. coli (DE3) at 16 °C with 0.5 mM IPTG induction overnight. Then, the protein was purified by Ni affinity and gel filtration chromatography. The p85α WT and p85α mutant sequences were chemically synthesized and subcloned into BamHI-XhoI sites of a pGEX-6P-1 plasmid by GenScript (Nanjing, China). The E. coli (DE3) transformed with the plasmids were grown in LB medium at 37 °C. The culture medium was supplemented with 0.5 mM IPTG followed by incubation at 16 °C for 16–18 h. […] The protein extinction coefficient was calculated by ProtParam, and the protein concentration was determined by the ultraviolet spectrophotometry method.
# Eleven α-helical peptides were synthesized (Supplementary Data 7). […] The interaction between the peptides and NLRP6 was determined by BLI using an Octet Red 96 instrument (FortéBio, CA, USA). […] Responses (nanometre shift) were calculated using data that were double reference subtracted using reference wells and nonspecific binding of the biosensor to the analyte. […]
# PI3K/AKT pathway [2] = assay: Immunoblot of PI3K/AKT pathway with Pep9 and SC-79; type: cell-based
# Procedure: as §1
# purified NLRP6 = assay: ELISA, binding of HRP-conjugated peptide to purified NLRP6; conditions: ELISA, 1 h
# Procedure: DNA encoding full-length NLRP6 was codon optimized and chemically synthesized by Genewiz (Soochow, China). The DNA sequence was subcloned into NdeI-XhoI sites of a pDB-His-MBP vector (kindly given by Pro. Chenggui Han, China Agricultural University, Beijing, China). Recombinant NLRP6 protein was expressed and purified following previous reports, with slight modifications. Briefly, the protein was expressed in E. coli (DE3) at 16 °C with 0.5 mM IPTG induction overnight. Then, the protein was purified by Ni affinity and gel filtration chromatography. The p85α WT and p85α mutant sequences were chemically synthesized and subcloned into BamHI-XhoI sites of a pGEX-6P-1 plasmid by GenScript (Nanjing, China). The E. coli (DE3) transformed with the plasmids were grown in LB medium at 37 °C. The culture medium was supplemented with 0.5 mM IPTG followed by incubation at 16 °C for 16–18 h. The proteins were purified by glutathione-affinity chromatography (Smart-Life Sciences, Changzhou, China) followed by gel filtration chromatography (Cytiva, MA, USA) using PBS. The protein extinction coefficient was calculated by ProtParam, and the protein concentration was determined by the ultraviolet spectrophotometry method.
# The 96-well plate was coated with bovine serum albumin (BSA) or purified NLRP6. HRP-conjugated PepC or HRP-conjugated Pep9 was incubated with BSA or NLRP6 for 1 h, and the unbound peptide was washed away. The HRP substrate was added, and the absorbance was detected at 450 nm. For the competitive ELISA, the 96-well plate was coated with purified p85α. The binding of NLRP6 to p85α competed with 10 μM PepC or 5 μM, 10 μM, 20 μM Pep9 for 1 h.
molecule,measurement,setting,value
"Cn1cnc(N)c2ncnc1-2 [3-methyladenine (3-MA), 3-methyladenine]",NLRP6-induced p85α degradation (in words),p85α in LN229 cells,attenuated NLRP6-induced p85α degradation
NC1(c2ccc(-c3nc4ccn5c(=O)[nH]nc5c4cc3-c3ccccc3)cc2)CCC1 [MK-2206],PI3K/AKT activation by NLRP6 overexpression (in words),PI3K/AKT pathway [1],NLRP6 overexpression could not activate PI3K/AKT pathway anymore when MK-2206 was introduced
same,AKT inhibition (in words),AKT,highly potent and selective allosteric AKT inhibitor
Cl.N [NH4Cl],NLRP6-induced p85α degradation (in words),p85α in LN229 cells,attenuated NLRP6-induced p85α degradation
CC(C)C[C@H](NC(=O)[C@H](CC(N)=O)NC(=O)[C@H](CCCCN)NC(=O)[C@H](CO)NC(=O)[C@H](CO)NC(=O)[C@@H](NC(=O)[C@H](CCC(N)=O)NC(=O)[C@H](CO)NC(=O)[C@H](CC(C)C)NC(=O)[C@H](CCCCN)NC(=O)[C@H](Cc1ccccc1)NC(=O)[C@H](Cc1ccccc1)NC(=O)[C@H](Cc1c[nH]cn1)NC(=O)[C@H](CCCCN)NC(=O)[C@H](CC(C)C)NC(=O)[C@H](CC(C)C)NC(=O)[C@H](Cc1ccc(O)cc1)NC(=O)[C@H](CCC(N)=O)NC(=O)[C@H](CC(C)C)NC(=O)[C@@H](NC(=O)[C@H](CC(C)C)NC(=O)[C@H](Cc1c[nH]c2ccccc12)NC(=O)[C@H](Cc1ccc(O)cc1)NC(=O)[C@H](CCC(N)=O)NC(=O)[C@H](Cc1c[nH]cn1)NC(=O)[C@@H]1CCCN1)[C@@H](C)O)[C@@H](C)O)C(=O)O [Pep9] (H-PHQYWLTLQYLLKHFFKLSQTSSKNL-OH),Kd,recombinant NLRP6,9 µM
CCOC(=O)C1=C(N)Oc2ccc(Cl)cc2C1C(C#N)C(=O)OCC (stereo not shown) [SC-79],effect of SC-79 on Pep9 inhibition of PI3K/AKT pathway (in words),PI3K/AKT pathway [2],The inhibition of Pep9 on PI3K/AKT pathway was reversed when SC79 was added
same,AKT binding and activation (in words),AKT; cytosol,specifically binds to the PH domain of AKT and activates AKT in the cytosol
"CO/C1=C\C(C)=C\[C@@H](C)[C@@H](O)[C@@H](C)C/C(C)=C/C=C/[C@H](OC)[C@@H]([C@@H](C)[C@@H](O)[C@H](C)[C@@]2(O)C[C@@H](O)[C@H](C)[C@@H](C(C)C)O2)OC1=O [bafilomycin A1 (BafA1), bafilomycin A1]",NLRP6-induced p85α degradation (in words),p85α in LN229 cells,attenuated NLRP6-induced p85α degradation
"CCN(CC)CCCC(C)Nc1ccnc2cc(Cl)ccc12 (stereo not shown) [chloroquine (CQ), chloroquine]",NLRP6-induced p85α degradation (in words),p85α in LN229 cells,attenuated NLRP6-induced p85α degradation
"HRP-conjugated Pep9: Horseradish peroxidase (HRP)-conjugated Pep9 (conjugate, left off: HRP, end not stated, kept) peptide: EADVEQQALTLPDLAEQFAPPDIAPPLLIKLVEAIEKKGLECSTLYRTQSSSNLAELRQLLDCDTPSVDLEMIDVHVLADAFKRYLLDLPNPVIPAAVYSEMISLAPEVQSSEEYIQLLKKLIRSPSIPHQYWLTLQYLLKHFFKLSQTSSKNLLNARVLSEIFSPMLFRFSAASSDNTENLIKVIEILISTEWNERQPAPALPPKPPKPTTVAN",binding of HRP-conjugated peptide to NLRP6 (in words),purified NLRP6,could bind to NLRP6
